Assay results published in article PMC11576293, “New series of 4,6-diaryl pyrimidines: facile synthesis and antiproliferative activity as dual EGFR/VEGFR-2 inhibitors” (Frontiers in Chemistry, 2024).

Legend:
Test in all cases: NCI-60 single-dose screen
Type in all cases: cell-based
[1] = tested on: 786-0; settings: Homo sapiens, single dose 10 µM, '-' = no inhibition, read-out: % Growth Inhibition
In short: (§1)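 NCI Developmental Therapeutics Program screen across 60 human cancer cell lines from nine tumor types; compounds tested at a single dose of 10 μM.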

[2] = tested on: A498; settings: Homo sapiens, single dose 10 µM, '-' = no inhibition, read-out: % Growth Inhibition
In short: as §1

[3] = tested on: A549/ATCC; settings: Homo sapiens, single dose 10 µM, '-' = no inhibition, read-out: % Growth Inhibition
In short: as §1

[4] = tested on: ACHN 1; settings: Homo sapiens, single dose 10 µM, '-' = no inhibition, read-out: % Growth Inhibition
In short: as §1

[5] = tested on: BT-549; settings: Homo sapiens, single dose 10 µM, '-' = no inhibition, read-out: % Growth Inhibition
In short: as §1

[6] = tested on: CAKI-1; settings: Homo sapiens, single dose 10 µM, '-' = no inhibition, read-out: % Growth Inhibition
In short: as §1

[7] = tested on: COLO 205; settings: Homo sapiens, single dose 10 µM, '-' = no inhibition, read-out: % Growth Inhibition
In short: as §1

[8] = tested on: DU-145; settings: Homo sapiens, single dose 10 µM, '-' = no inhibition, read-out: % Growth Inhibition
In short: as §1

[9] = tested on: EKVX; settings: Homo sapiens, single dose 10 µM, '-' = no inhibition, read-out: % Growth Inhibition
In short: as §1

[10] = tested on: HCC-2998; settings: Homo sapiens, single dose 10 µM, '-' = no inhibition, read-out: % Growth Inhibition
In short: as §1

[11] = tested on: HCT-116; settings: Homo sapiens, single dose 10 µM, '-' = no inhibition, read-out: % Growth Inhibition
In short: as §1

[12] = tested on: HL-60(TB); settings: Homo sapiens, single dose 10 µM, '-' = no inhibition, read-out: % Growth Inhibition
[13] = tested on: HOP-62; settings: Homo sapiens, single dose 10 µM, '-' = no inhibition, read-out: % Growth Inhibition
In short: as §1

[14] = tested on: HOP-92; settings: Homo sapiens, single dose 10 µM, '-' = no inhibition, read-out: % Growth Inhibition
In short: as §1

[15] = tested on: IGROV1; settings: Homo sapiens, IGROV-1, single dose 10 µM, '-' = no inhibition, read-out: % Growth Inhibition
In short: as §1

[16] = tested on: K-562; settings: Homo sapiens, K562, single dose 10 µM, '-' = no inhibition, read-out: % Growth Inhibition
In short: as §1

[17] = tested on: KM12; settings: Homo sapiens, single dose 10 µM, '-' = no inhibition, read-out: % Growth Inhibition
In short: as §1

[18] = tested on: LOX IMVI; settings: Homo sapiens, single dose 10 µM, '-' = no inhibition, read-out: % Growth Inhibition
In short: as §1

[19] = tested on: MALME-3M; settings: Homo sapiens, single dose 10 µM, '-' = no inhibition, read-out: % Growth Inhibition
In short: as §1

[20] = tested on: MCF7; settings: Homo sapiens, single dose 10 µM, '-' = no inhibition, read-out: % Growth Inhibition
In short: as §1

[21] = tested on: MDA-MB-435; settings: Homo sapiens, single dose 10 µM, '-' = no inhibition, read-out: % Growth Inhibition
In short: as §1

[22] = tested on: MDA-MB-468; settings: Homo sapiens, single dose 10 µM, '-' = no inhibition, read-out: % Growth Inhibition
In short: as §1

[23] = tested on: MDA-MB231/ATCC; settings: Homo sapiens, MDA-MB-231, single dose 10 µM, '-' = no inhibition, read-out: % Growth Inhibition
In short: as §1

[24] = tested on: NCI-H23; settings: Homo sapiens, single dose 10 µM, '-' = no inhibition, read-out: % Growth Inhibition
In short: as §1

[25] = tested on: NCI-H322M; settings: Homo sapiens, single dose 10 µM, '-' = no inhibition, read-out: % Growth Inhibition
In short: as §1

[26] = tested on: NCI-H460; settings: Homo sapiens, single dose 10 µM, '-' = no inhibition, read-out: % Growth Inhibition
In short: as §1

[27] = tested on: NCI-H522; settings: Homo sapiens, single dose 10 µM, '-' = no inhibition, read-out: % Growth Inhibition
In short: as §1

[28] = tested on: NCI/ADR-RES; settings: Homo sapiens, single dose 10 µM, '-' = no inhibition, read-out: % Growth Inhibition
In short: as §1

[29] = tested on: OVCAR-3; settings: Homo sapiens, single dose 10 µM, '-' = no inhibition, read-out: % Growth Inhibition
In short: as §1

[30] = tested on: OVCAR-4; settings: Homo sapiens, single dose 10 µM, '-' = no inhibition, read-out: % Growth Inhibition
In short: as §1

[31] = tested on: OVCAR-5; settings: Homo sapiens, single dose 10 µM, '-' = no inhibition, read-out: % Growth Inhibition
In short: as §1

[32] = tested on: OVCAR-8; settings: Homo sapiens, single dose 10 µM, '-' = no inhibition, read-out: % Growth Inhibition
In short: as §1

[33] = tested on: PC-3; settings: Homo sapiens, single dose 10 µM, '-' = no inhibition, read-out: % Growth Inhibition
In short: as §1

[34] = tested on: RPMI-8226; settings: Homo sapiens, single dose 10 µM, '-' = no inhibition, read-out: % Growth Inhibition
In short: as §1

[35] = tested on: RXF 393; settings: Homo sapiens, single dose 10 µM, '-' = no inhibition, read-out: % Growth Inhibition
In short: as §1

[36] = tested on: SF-268; settings: Homo sapiens, single dose 10 µM, '-' = no inhibition, read-out: % Growth Inhibition
In short: as §1

[37] = tested on: SK-MEL-28; settings: Homo sapiens, single dose 10 µM, '-' = no inhibition, read-out: % Growth Inhibition
In short: as §1

[38] = tested on: SK-MEL-2; settings: Homo sapiens, single dose 10 µM, '-' = no inhibition, read-out: % Growth Inhibition
In short: as §1

[39] = tested on: SK-MEL-5; settings: Homo sapiens, single dose 10 µM, '-' = no inhibition, read-out: % Growth Inhibition
In short: as §1

[40] = tested on: SN12C; settings: Homo sapiens, single dose 10 µM, '-' = no inhibition, read-out: % Growth Inhibition
In short: as §1

[41] = tested on: SNB-19; settings: Homo sapiens, single dose 10 µM, '-' = no inhibition, read-out: % Growth Inhibition
In short: as §1

[42] = tested on: SNB-75; settings: Homo sapiens, single dose 10 µM, '-' = no inhibition, read-out: % Growth Inhibition
In short: as §1

[43] = tested on: SR; settings: Homo sapiens, single dose 10 µM, '-' = no inhibition, read-out: % Growth Inhibition
In short: as §1

[44] = tested on: TK-10; settings: Homo sapiens, single dose 10 µM, '-' = no inhibition, read-out: % Growth Inhibition
In short: as §1

[45] = tested on: U251; settings: Homo sapiens, U-251, single dose 10 µM, '-' = no inhibition, read-out: % Growth Inhibition
In short: as §1

[46] = tested on: UACC-257; settings: Homo sapiens, single dose 10 µM, '-' = no inhibition, read-out: % Growth Inhibition
In short: as §1

[47] = tested on: UACC-62; settings: Homo sapiens, single dose 10 µM, '-' = no inhibition, read-out: % Growth Inhibition
In short: as §1

[48] = tested on: UO-31; settings: Homo sapiens, single dose 10 µM, '-' = no inhibition, read-out: % Growth Inhibition
In short: as §1

With CCCSc1nc(-c2ccc(Cl)cc2)cc(-c2ccc(OC)c(OC)c2)n1 [Compound 25, 4-(4-Chlorophenyl)-6-(3,4-dimethoxyphenyl)-2-(propylthio)pyrimidine] the inhibition at 10 µM [1] was less than 0%, the inhibition at 10 µM [2] was less than 0% and the inhibition at 10 µM [3] was 17.3%. The inhibition at 10 µM [4] was 7.82%, the inhibition at 10 µM [5] was less than 0% and the inhibition at 10 µM [6] was 13.5%. For the same compound, the inhibition at 10 µM [7] was 31.7%, the inhibition at 10 µM [8] was 17.6% and the inhibition at 10 µM [9] was 5.09%. It also gave an inhibition at 10 µM [10] of 4.26%, an inhibition at 10 µM [11] of less than 0% and an inhibition at 10 µM [12] of 15.5%. The inhibition at 10 µM [13] was less than 0%, the inhibition at 10 µM [14] was less than 0% and the inhibition at 10 µM [15] was less than 0%. For the same compound, the inhibition at 10 µM [16] was 27.1%, the inhibition at 10 µM [17] was 25.5% and the inhibition at 10 µM [18] was 1.51%. The inhibition at 10 µM [19] was 7.34%, the inhibition at 10 µM [20] was 17.5% and the inhibition at 10 µM [21] was 0.34%. It also gave an inhibition at 10 µM [22] of less than 0%, an inhibition at 10 µM [23] of 16.2% and an inhibition at 10 µM [24] of 2.74%. For the same compound, the inhibition at 10 µM [25] was 4.54%, the inhibition at 10 µM [26] was less than 0% and the inhibition at 10 µM [27] was 8%. For the same compound, the inhibition at 10 µM [28] was 11.2%, the inhibition at 10 µM [29] was less than 0% and the inhibition at 10 µM [30] was 20.2%. It also gave an inhibition at 10 µM [31] of 4.78%, an inhibition at 10 µM [32] of 6.34% and an inhibition at 10 µM [33] of 6.31%. For the same compound, the inhibition at 10 µM [34] was 10.8%, the inhibition at 10 µM [35] was 8.5% and the inhibition at 10 µM [36] was 6.85%. The inhibition at 10 µM [37] was 17.4%, the inhibition at 10 µM [38] was 14.9% and the inhibition at 10 µM [39] was 0.38%. The inhibition at 10 µM [40] was less than 0%, the inhibition at 10 µM [41] was less than 0% and the inhibition at 10 µM [42] was 2.64%. It also gave an inhibition at 10 µM [43] of 24.9%, an inhibition at 10 µM [44] of 11.6% and an inhibition at 10 µM [45] of 7.53%. It also gave an inhibition at 10 µM [46] of 24.8%, an inhibition at 10 µM [47] of 3.23% and an inhibition at 10 µM [48] of 8.18%.
